Experimental findings from patent publication US20190350895A1, “PHOTOCHROMATIC MODULATION WITH FLUORESCEIN FOR THE TREATMENT OF PHOTO-OCULODYNIA AND BLEPHAROSPASM” (Baylor College of Medicine, priority 2016, published 2019) are described below.

Test [1] concerns patients with essential blepharospasm. In words: Blink rate before and immediately after placement of a scleral contact lens with fluorescein dye in the fluid reservoir. It is filed as in vivo, human. The conditions noted are these: immediately after placement of scleral lens with saline mixed with fluorescein dye. Here is the method:
(§1) All patients in the study have an established diagnosis of essential blepharospasm currently managed with botulinum toxin injections. Prior to treatment with the fluorescein dye, patients are evaluated for their blink rate as determined by the number of blinks per minute. Patients are also evaluated using the Jankovic rating scale which has 2 components: 1. The severity of the eyelid spasms are rated from 0-4 (0=no spasms, 4=severe incapacitating spasms) and, 2. The frequency of spasms are rated from 0-4 (0=no spasms, 4=persistent eye closure). The sum of the severity score and the frequency score is then computed. Patients are then fitted with a scleral contact lens with normal saline solution mixed with fluorescein dye placed in the fluid reservoir. The blink rate and JRS sum score are then assessed immediately after placement of the lens.

Test [2] shares this test system. In words: Jankovic rating scale (JRS) sum score, severity plus frequency of eyelid spasms, before and immediately after lens placement. In kind it is in vivo, human. The conditions noted are these: sum of severity (0-4) and frequency (0-4) scores immediately after lens placement. Here is the method: as §1

On to `O=C1OC2(c3ccc(O)cc3Oc3cc(O)ccc32)c2ccccc21` [fluorescein], for which the Post blink-rate in test [1] (Patient 1, pre blink-rate 80) is recorded as 10 blinks per minute; in test [1] (Patient 2, pre blink-rate 50), 20 blinks per minute; in test [1] (Patient 3, pre blink-rate 60) it was 40 blinks per minute; in test [1] (Patient 4, pre blink-rate 70) it was 35 blinks per minute; in test [1] (Patient 5, pre blink-rate 70) it was 49 blinks per minute. The “Post JRS” value in test [2] (Patient 1, pre JRS 7) is recorded as 1; in test [2] (Patient 2, pre JRS 6), 3; in test [2] (Patient 3, pre JRS 6) it was 4; in test [2] (Patient 4, pre JRS 7) it was 4; in test [2] (Patient 5, pre JRS 7), 3.
